Data reported in US20060040905A1 (priority 2002, published 2006).

Legend:
[1] = tested on: nasal epithelial cell-line (RPMI 2650); assay: cytotoxicity against nasal epithelial cell-line; assay type: cell-based; conditions: RPMI 2650 cells; even at high concentrations (>5 mM)
[2] = stability with excipients individually; assay type: physicochemical
solubility = assay type: physicochemical
Excerpt: (§1) Nefopam may thus be rapidly and completely absorbed from the nasal cavity and provide the rapid onset of action required to bring pain relief.

[3] = stability in solution across pH range; assay type: physicochemical; conditions: wide pH range (4-7) including pH 5.5-6.5
Excerpt: as §1

[4] = in vivo; cited from earlier work
mouse tail-flick test = conditions: cited from earlier work
hot plate test = conditions: in vivo; cited from earlier work
[5] = tested on: Randall-Selitto pressure test; conditions: rats; cited from earlier work

## CN1CCOC(c2ccccc2)c2ccccc2C1 (racemic) [nefopam]
[1]
  cytotoxicity: no cytotoxicity
[2]; 4 weeks incubation at 25° C.
  stability with all the excipients individually: demonstrated
[2]; 4 weeks incubation at 50° C.
  stability with all the excipients individually: demonstrated
solubility
  solubility: highly soluble
[3]
  stability in solution: stable in solution
[4]
  elimination half-life: four
Mouse tail-flick test
  activity in mouse tail-flick test: not active
Hot plate test
  activity in hot plate test: not active
[5]
  activity in Randall-Selitto pressure test: not active
